The text below walks through data of patent publication US20240116923A1, “USE OF INDOLE, 6- AND 7-AZAINDOLE DERIVATIVES AS INHIBITORS OF FERROPTOSIS REGULATED CELL DEATH” (Seabelife, priority 2021, published 2024).

One assay deals with male Wistar rats. Description: In vivo model of ischaemic acute renal failure induced by transient bilateral renal artery occlusion. The conditions noted are these: rat, 15 mg/kg IP. The method, then:
The experiment was carried out using male Wistar rats (Janvier Labs, C.S. 4105, Saint-Berthevin F-53941, France), weighing 200-260 g on the day of surgery. Before surgery, the animals were housed in groups 2-4 in polysulfone cages (floor area=1500 cm^2) under standard conditions: room temperature (22±2° C.), hygrometry (55±10%), light/dark cycle (12 h/12 h), air replacement (15-20 volumes/hour), water and food (SAFE, ref. A04) ad libitum. The animals were allowed to acclimate to environmental conditions for at least 5 days prior to experimentation. Rats were anesthetised with sodium pentobarbital (60 mg/kg i.p.), and placed on a servocontrolled heating table to maintain rectal temperature close to 37° C. After endotracheal intubation animals were mechanically ventilated. The abdominal cavity was exposed by medial laparotomy, both left and right renal arteries will be identified, carefully dissected from the renal vein and clamped for 40 min. During this clamping period the abdominal cavity was kept closed. The clamps were released, perfusion to the kidneys re-established and the abdominal cavity sutured. Animals where reperfusion were incomplete, as judged visually, were excluded. Post-surgical analgesia was ensured by subcutaneous administration of buprenorphine (10 50 μg/kg, sc) twice daily for 2 days (including the day of surgery). After surgery, the animals were individually housed. The animals were observed and weighted daily and the sutures were examined and disinfected with antiseptic solution (povidone-iodine) if needed.
A follow-up of body weight and mortality were performed for all animals, the day of surgery and during the 7 days following ischaemia. In order to determine creatinine and blood urea nitrogen (BUN) concentrations in plasma, 6 blood samples of at least 0.3 mL were taken from each animal: before surgery and then on days 1, 2, 3 (before vehicle/SBL01 administrations), 4 and 7 after surgery. The following parameters were measured: Creatinine concentration in plasma, Blood urea nitrogen concentration, and Body weight. […]

Assay [1] deals with Primary cultures of porcine RPE. Nature of the assay: Cellular model of retinal pigment epithelium (RPE) phototoxicity (A2E + blue light). The class given is cell-based. The conditions noted are these: 10 and 30 μM, A2E 30 μM + blue light, 24 h after induction; FIG. 29. The method, then: Primary cultures of porcine RPE are prepared weekly and run on 96-well culture plates after one week in vitro. The cells are incubated with the molecule 10 minutes before induction of phototoxicity. A2E (30 μM) is added to the culture medium 19 hours before cell illumination by a device equipped with blue light emitting leds (λ=[…]). Cell survival and death are detected 24 hours after induction of phototoxicity by staining cells with Hoechst (a nuclear marker) and ethidium (a marker for dead cell nuclei). Images of each well are acquired on a fluorescence microscope equipped with a motorised stage driven by Metamorph software, and cell survival is quantified by inhouse program. The molecules are tested at 10 and 30 μM unless toxicity at this concentration. The negative control corresponds to cells treated with A2E and vehicle. The positive control corresponds to cells treated with A2E and crocetin (100 μM) 48 h before illumination. The treatments are done in quadruplicate and the experiments are performed 4 times.

The structures appear in SMILES notation.

As to `Oc1ccc(-c2cc3cccnc3[nH]2)cc1` [Compound 7, 4-(1H-pyrrolo[2,3-b]pyridin-2-yl)phenol], the creatinine plasma level entry with male Wistar rats (Day 2 after surgery, vs vehicle, FIG. 40) is recorded as “significant decrease”. In the assay on male Wistar rats (Day 2 after surgery, vs vehicle, FIG. 41), the urea plasma level entry is listed as “significant decrease”. In the assay on male Wistar rats (compared to the vehicle), the “renal function during artery occlusion (protection against renal ischaemic failure)” value is on record as “protective effect”.

Turning to `Oc1ccc(-c2cc3ccccc3[nH]2)cc1` [Compound 1, 4-(1H-indol-2-yl)phenol], the “cell survival of RPE cells after induction of phototoxicity” value in assay [1] is reported as “protect RPE cells significantly against phototoxicity”.
